The results in this text go back to PubChem BioAssay (NCI).

Some test systems named below: HCT-116 colon; HCT-15 colon; IGROV1 ovarian; K-562 leukemia; MALME-3M melanoma; MOLT-4 leukemia; OVCAR-3 ovarian; OVCAR-4 ovarian; RXF 393 renal; SK-MEL-2 melanoma; SK-MEL-28 melanoma; SR leukemia; TK-10 renal; UACC-62 melanoma; NCI-H226 lung; MDA-MB-435; NCI/ADR-RES ovarian; PC-3 prostate.
Assay in all cases: NCI tumour cell line growth inhibition, 48 h

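Test compounds were applied to cells in 96-well plates for 48 hours at 5 doses. TGI is the concentration that stops growth completely.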

For `Cc1cc2c([nH]c3ccccc32)c2c1OC(C)(C)C1C3CC(C)(C)Oc4c(C)cc5c6ccccc6n(c5c43)C21` (stereo not drawn), the TGI in the test on HCT-116 colon, with HCT-15 colon, with IGROV1 ovarian, with K-562 leukemia, in the test on MALME-3M melanoma and with MOLT-4 leukemia was over 100 µM in each case. Moreover, the TGI in the test with OVCAR-3 ovarian, with OVCAR-4 ovarian, in the test on RXF 393 renal, in the test on SK-MEL-2 melanoma, in the test on SK-MEL-28 melanoma and in the test with SR leukemia was over 100 µM in each case. The TGI with TK-10 renal and with UACC-62 melanoma was over 100 µM each time.
On to `CC(=O)O[C@H]1C(=O)[C@@]2(C)C(C(OC(=O)c3ccccc3)C3[C@@H](O)C(OC(=O)[C@@H](O)[C@H](NC(=O)c4ccccc4)c4ccc(C(F)(F)F)cc4)C(C)=C1C3(C)C)[C@]1(OC(C)=O)CO[C@@H]1C[C@@H]2O` (stereo partly drawn), for which the TGI with HCT-116 colon, in the test with HCT-15 colon, in the test on IGROV1 ovarian, in the test with K-562 leukemia, in the test on MALME-3M melanoma and in the test on MOLT-4 leukemia was over 25 µM throughout. Also, the TGI with NCI-H226 lung, with OVCAR-3 ovarian, in the test with RXF 393 renal, in the test with SK-MEL-2 melanoma, with SK-MEL-28 melanoma and in the test on SR leukemia was over 25 µM each time. Also, the TGI in the test on TK-10 renal and with UACC-62 melanoma was over 25 µM each time.
As to `COc1ccc(SCc2cc(OCc3ccccc3)c(OCc3ccccc3)c(OCc3ccccc3)c2)cc1`, the TGI with HCT-116 colon was found to be 3.14 µM; with HCT-15 colon, 3.47 µM; in the test on IGROV1 ovarian it was 3.34 µM; with K-562 leukemia it was 2.62 µM; in the test on MALME-3M melanoma, 3.37 µM; in the test with MDA-MB-435 it was 3.33 µM. The TGI in the test with MOLT-4 leukemia was determined as 3.3 µM; with NCI-H226 lung, 3.73 µM; in the test on NCI/ADR-RES ovarian, 3.38 µM; in the test on OVCAR-3 ovarian, 3.04 µM; with OVCAR-4 ovarian it was 3.25 µM; in the test with PC-3 prostate, 3.37 µM. The TGI came to 3.52 µM in the test with SK-MEL-28 melanoma and 3.32 µM in the test on TK-10 renal.
Turning to `CC1(C)C2C=CC1C(=O)CC2` (stereo not drawn), the TGI in the test with HCT-116 colon, with HCT-15 colon, in the test on K-562 leukemia, with MALME-3M melanoma, in the test on MOLT-4 leukemia and in the test with NCI-H226 lung was over 100 µM throughout. For the same compound, the TGI with OVCAR-3 ovarian, in the test with OVCAR-4 ovarian, with RXF 393 renal, in the test with SK-MEL-2 melanoma, in the test on SK-MEL-28 melanoma and in the test with TK-10 renal was over 100 µM each time.
Consider `Cn1cc2ccccc2c1-c1nc(F)nc(OCC(=O)[C@H]2CCC3[C@@H]4CCC5=CC(=O)CC[C@]5(C)C4[C@@H](O)C[C@@]32C)n1` (stereo partly drawn), for which the TGI turned out to be 27 µM with HCT-116 colon; 20.7 µM in the test on HCT-15 colon; 22.9 µM with IGROV1 ovarian; 8.94 µM with K-562 leukemia; 33.8 µM with MALME-3M melanoma; 54.3 µM with MOLT-4 leukemia. Also, the TGI is 36.5 µM with NCI-H226 lung; 33.2 µM with OVCAR-3 ovarian; 29.6 µM in the test on OVCAR-4 ovarian; 14.5 µM in the test with RXF 393 renal; 31.3 µM with SK-MEL-2 melanoma; 31.2 µM in the test on SK-MEL-28 melanoma. For the same compound, the TGI came out at 12.8 µM in the test with SR leukemia, 47.9 µM in the test on TK-10 renal and 36.7 µM with UACC-62 melanoma.
As for `CCN(CC)C(=O)C(C)n1cc(C)c(=O)[nH]c1=O` (stereo not drawn), the TGI in the test on HCT-116 colon, in the test with HCT-15 colon, with IGROV1 ovarian, in the test on K-562 leukemia, with MALME-3M melanoma and with MOLT-4 leukemia was over 100 µM in each case. The TGI in the test with OVCAR-3 ovarian, in the test with OVCAR-4 ovarian, with RXF 393 renal, in the test with SK-MEL-2 melanoma, in the test on SK-MEL-28 melanoma and in the test on TK-10 renal was over 100 µM in each case. This compound returned a TGI with UACC-62 melanoma of over 100 µM.
For `O=C1c2ccc(O)c(O)c2C(=O)c2c(O)ccc(O)c21`, the TGI in the test on HCT-116 colon was 45.2 µM; in the test with HCT-15 colon, 89.1 µM; in the test on IGROV1 ovarian it was over 100 µM; in the test with K-562 leukemia, 70.9 µM; with MOLT-4 leukemia it was 62.2 µM; with NCI-H226 lung, 50.5 µM. Also, the TGI was 49.7 µM with OVCAR-3 ovarian; 6.53 µM in the test with OVCAR-4 ovarian; 55.2 µM in the test with RXF 393 renal; 66.5 µM in the test on SK-MEL-2 melanoma; over 100 µM with SK-MEL-28 melanoma; 93.7 µM in the test on SR leukemia. For the same compound, the TGI was over 100 µM with TK-10 renal and 41.6 µM with UACC-62 melanoma.
For `Nc1nc2c3nc(Nc4ccccc4)sc3nc(=O)n2c2sc(Nc3ccccc3)nc12`, the TGI with HCT-116 colon, in the test with HCT-15 colon, in the test with IGROV1 ovarian, in the test on K-562 leukemia, in the test with MALME-3M melanoma and in the test on MOLT-4 leukemia was over 100 µM in each case. The TGI in the test with NCI-H226 lung, in the test on OVCAR-4 ovarian, in the test on RXF 393 renal, with SK-MEL-28 melanoma, in the test on SR leukemia and in the test on UACC-62 melanoma was over 100 µM throughout.
